Reference: ChEMBL document CHEMBL1201862, “PubChem BioAssay data set” (2004)
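Grown in 96-well plates, cells were treated for 48 hours with each compound at five concentrations. Insufficient inhibition: endpoint recorded as highest concentration tested. Here, GI50 denotes the concentration required for 50% inhibition of growth.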 The source made the active and inactive calls. No stated cut-off is given here; in the data, active = GI50 up to about 1.1 µM and inactive = higher.

Columns and labels:
Assay in all cases: NCI anticancer screen, dose series, 48 h
COLO 205 = system: COLO 205
LOX IMVI = system: LOX IMVI
A549 = system: A549
CAKI-1 = system: CAKI-1
HCC 2998 = system: HCC 2998
XF498 = system: XF498
UACC-257 = system: UACC-257
OVCAR-5 = system: OVCAR-5
SF-295 = system: SF-295
UO-31 = system: UO-31
OVCAR-4 = system: OVCAR-4
CCRF-CEM = system: CCRF-CEM
SK-MEL-28 = system: SK-MEL-28
DMS-114 = system: DMS-114
SNB-78 = system: SNB-78
NCI/ADR-RES = system: NCI/ADR-RES
Malme-3M = system: Malme-3M
HCT-15 = system: HCT-15
MOLT-4 = system: MOLT-4
HL-60 = system: HL-60
HOP-62 = system: HOP-62
HOP-18 = system: HOP-18
SNB-75 = system: SNB-75
IGROV-1 = system: IGROV-1
RXF 393 = system: RXF 393
NCI-H460 = system: NCI-H460
SW-620 = system: SW-620
SNB-19 = system: SNB-19
SK-MEL-5 = system: SK-MEL-5
MCF7 = system: MCF7
SN12C = system: SN12C
NCI-H522 = system: NCI-H522
EKVX = system: EKVX
OVCAR-8 = system: OVCAR-8
SF-268 = system: SF-268
NCI-H23 = system: NCI-H23
NCI-H226 = system: NCI-H226
UACC-62 = system: UACC-62
KM12 = system: KM12
DMS-273 = system: DMS-273
RPMI-8226 = system: RPMI-8226
DLD-1 = system: DLD-1
HT-29 = system: HT-29
HCT-116 = system: HCT-116
OVCAR-3 = system: OVCAR-3
K562 = system: K562
SK-MEL-2 = system: SK-MEL-2
M19-MEL = system: M19-MEL
SK-OV-3 = system: SK-OV-3
HOP-92 = system: HOP-92
A498 = system: A498
KM-20L2 = system: KM-20L2
SF-539 = system: SF-539
LXFL 529 = system: LXFL 529
TK-10 = system: TK-10
786-0 = system: 786-0
ACHN = system: ACHN
M14 = system: M14
U-251 = system: U-251

C#CCn1c(=O)c(C#N)c(O)c2cc3ccccc3nc21
GI50 (COLO 205): > 100 µM (inactive) | GI50 (LOX IMVI): > 100 µM (inactive) | GI50 (A549): > 100 µM (inactive) | GI50 (CAKI-1): > 100 µM (inactive) | GI50 (HCC 2998): > 100 µM (inactive) | GI50 (XF498): > 100 µM (inactive) | GI50 (UACC-257): > 100 µM (inactive) | GI50 (OVCAR-5): > 84.9 µM (inactive) | GI50 (SF-295): > 100 µM (inactive) | GI50 (UO-31): > 100 µM (inactive) | GI50 (OVCAR-4): > 10 µM (inactive) | GI50 (CCRF-CEM): > 100 µM (inactive) | GI50 (SK-MEL-28): > 100 µM (inactive) | GI50 (DMS-114): > 100 µM (inactive) | GI50 (SNB-78): > 100 µM (inactive) | GI50 (NCI/ADR-RES): > 100 µM (inactive) | GI50 (Malme-3M): > 100 µM (inactive) | GI50 (HCT-15): > 100 µM | GI50 (MOLT-4): > 100 µM (inactive) | GI50 (HL-60): > 100 µM (inactive) | GI50 (HOP-62): > 100 µM (inactive) | GI50 (HOP-18): > 100 µM (inactive) | GI50 (SNB-75): > 100 µM (inactive) | GI50 (IGROV-1): > 100 µM (inactive) | GI50 (RXF 393): > 100 µM (inactive) | GI50 (NCI-H460): > 100 µM (inactive) | GI50 (SW-620): > 100 µM (inactive) | GI50 (SNB-19): > 100 µM (inactive) | GI50 (SK-MEL-5): > 100 µM (inactive) | GI50 (MCF7): > 100 µM (inactive) | GI50 (SN12C): > 100 µM (inactive) | GI50 (NCI-H522): > 100 µM (inactive) | GI50 (EKVX): > 100 µM (inactive) | GI50 (OVCAR-8): > 100 µM (inactive) | GI50 (SF-268): > 31.6 µM (inactive) | GI50 (NCI-H23): > 100 µM (inactive) | GI50 (NCI-H226): > 84.1 µM (inactive) | GI50 (UACC-62): > 100 µM (inactive) | GI50 (KM12): > 100 µM (inactive) | GI50 (DMS-273): > 100 µM (inactive) | GI50 (RPMI-8226): > 100 µM (inactive) | GI50 (DLD-1): > 100 µM (inactive) | GI50 (HT-29): > 100 µM (inactive) | GI50 (HCT-116): > 100 µM (inactive) | GI50 (OVCAR-3): > 100 µM (inactive) | GI50 (K562): > 100 µM (inactive) | GI50 (SK-MEL-2): > 100 µM (inactive) | GI50 (M19-MEL): > 100 µM (inactive) | GI50 (SK-OV-3): > 100 µM (inactive) | GI50 (HOP-92): > 100 µM (inactive) | GI50 (A498): > 100 µM (inactive)

CCO/C=C1\N=C(c2ccccc2Br)OC1=O
GI50 (COLO 205): > 100 µM (inactive) | GI50 (LOX IMVI): > 100 µM (inactive) | GI50 (A549): > 100 µM (inactive) | GI50 (CAKI-1): > 100 µM (inactive) | GI50 (HCC 2998): > 100 µM (inactive) | GI50 (XF498): > 100 µM (inactive) | GI50 (UACC-257): > 100 µM (inactive) | GI50 (OVCAR-5): > 100 µM (inactive) | GI50 (SF-295): > 100 µM (inactive) | GI50 (UO-31): > 100 µM (inactive) | GI50 (OVCAR-4): > 100 µM (inactive) | GI50 (CCRF-CEM): > 100 µM (inactive) | GI50 (SK-MEL-28): > 100 µM (inactive) | GI50 (DMS-114): > 100 µM (inactive) | GI50 (SNB-78): > 100 µM (inactive) | GI50 (Malme-3M): > 100 µM (inactive) | GI50 (HCT-15): > 100 µM | GI50 (MOLT-4): > 100 µM (inactive) | GI50 (HL-60): > 100 µM (inactive) | GI50 (HOP-62): > 100 µM (inactive) | GI50 (SNB-75): > 100 µM (inactive) | GI50 (RXF 393): > 100 µM (inactive) | GI50 (KM-20L2): > 100 µM (inactive) | GI50 (NCI-H460): > 100 µM (inactive) | GI50 (SW-620): > 100 µM (inactive) | GI50 (SNB-19): > 100 µM (inactive) | GI50 (SF-539): > 100 µM (inactive) | GI50 (SN12C): > 100 µM (inactive) | GI50 (NCI-H522): > 100 µM (inactive) | GI50 (EKVX): > 100 µM (inactive) | GI50 (OVCAR-8): > 100 µM (inactive) | GI50 (SF-268): > 100 µM (inactive) | GI50 (LXFL 529): > 100 µM (inactive) | GI50 (NCI-H23): > 100 µM (inactive) | GI50 (TK-10): > 100 µM (inactive) | GI50 (NCI-H226): > 100 µM (inactive) | GI50 (UACC-62): > 100 µM (inactive) | GI50 (KM12): > 10 µM (inactive) | GI50 (DMS-273): > 100 µM (inactive) | GI50 (RPMI-8226): > 100 µM (inactive) | GI50 (DLD-1): > 100 µM (inactive) | GI50 (HT-29): > 100 µM (inactive) | GI50 (786-0): > 100 µM (inactive) | GI50 (ACHN): > 100 µM (inactive) | GI50 (OVCAR-3): > 100 µM (inactive) | GI50 (K562): > 100 µM (inactive) | GI50 (SK-MEL-2): > 100 µM (inactive) | GI50 (M19-MEL): > 100 µM (inactive) | GI50 (SK-OV-3): > 100 µM (inactive) | GI50 (M14): > 100 µM (inactive) | GI50 (HOP-92): > 100 µM (inactive) | GI50 (A498): > 100 µM (inactive)

CCCCCCC(/C=N/O)C(C)(O)CCC (configuration not stated)
GI50 (COLO 205): > 100 µM (inactive) | GI50 (LOX IMVI): > 100 µM (inactive) | GI50 (A549): > 100 µM (inactive) | GI50 (CAKI-1): > 100 µM (inactive) | GI50 (HCC 2998): > 100 µM (inactive) | GI50 (XF498): 13.2 µM (inactive) | GI50 (UACC-257): > 100 µM (inactive) | GI50 (OVCAR-5): > 100 µM (inactive) | GI50 (SF-295): > 100 µM (inactive) | GI50 (UO-31): > 100 µM (inactive) | GI50 (OVCAR-4): > 100 µM (inactive) | GI50 (CCRF-CEM): > 100 µM (inactive) | GI50 (SK-MEL-28): > 100 µM (inactive) | GI50 (DMS-114): 73.6 µM (inactive) | GI50 (SNB-78): > 100 µM (inactive) | GI50 (Malme-3M): > 100 µM (inactive) | GI50 (HCT-15): > 100 µM | GI50 (MOLT-4): 61.7 µM (inactive) | GI50 (HL-60): 67.9 µM (inactive) | GI50 (HOP-62): > 100 µM (inactive) | GI50 (SNB-75): > 100 µM (inactive) | GI50 (IGROV-1): > 100 µM (inactive) | GI50 (RXF 393): > 100 µM (inactive) | GI50 (KM-20L2): > 100 µM (inactive) | GI50 (NCI-H460): > 100 µM (inactive) | GI50 (SW-620): > 100 µM (inactive) | GI50 (SNB-19): > 100 µM (inactive) | GI50 (SK-MEL-5): > 100 µM (inactive) | GI50 (SF-539): > 100 µM (inactive) | GI50 (SN12C): > 100 µM (inactive) | GI50 (NCI-H522): 37.7 µM (inactive) | GI50 (EKVX): > 100 µM (inactive) | GI50 (OVCAR-8): > 100 µM (inactive) | GI50 (SF-268): > 100 µM (inactive) | GI50 (LXFL 529): > 100 µM (inactive) | GI50 (NCI-H23): > 100 µM (inactive) | GI50 (TK-10): > 100 µM (inactive) | GI50 (NCI-H226): > 100 µM (inactive) | GI50 (UACC-62): > 100 µM (inactive) | GI50 (KM12): > 100 µM (inactive) | GI50 (DMS-273): > 100 µM (inactive) | GI50 (RPMI-8226): 54 µM (inactive) | GI50 (DLD-1): > 100 µM (inactive) | GI50 (U-251): > 100 µM (inactive) | GI50 (HT-29): > 100 µM (inactive) | GI50 (HCT-116): 91.4 µM (inactive) | GI50 (786-0): > 100 µM (inactive) | GI50 (ACHN): > 100 µM (inactive) | GI50 (OVCAR-3): > 100 µM (inactive) | GI50 (K562): 84.3 µM (inactive) | GI50 (SK-MEL-2): > 100 µM (inactive) | GI50 (M19-MEL): > 100 µM (inactive) | GI50 (M14): > 100 µM (inactive) | GI50 (A498): > 100 µM (inactive)
